Results published in patent US6534524B1, “Indazole compounds and pharmaceutical compositions for inhibiting protein kinases, and methods for their use” (Agouron Pharmaceuticals, Inc., priority 1999, dated 2003).
Like-named read-outs stand apart in the source and are kept apart here.

Key:
[1] = Human liver microsome (HLM) assay; format: in vitro ADME; conditions: human liver microsomes, 5 μM test compound
Method: Human Liver Microsome (HLM) Assay Compound metabolism in human liver microsomes was measured by LC-MS analytical assay procedures as follows. […] (3 tubes per test compound-triplicate). […] The samples were then transferred to separate polypropylene microcentrifuge tubes and centrifuged at 14000 g for 10 min. (Fisher Micro […] M0017580). For each replicate (#1-3) at each timepoint (0 and 2 h), an aliquot sample of each test compound was combined into a single HPLC vial insert (6 total samples) for LC-MS analysis, which is described below.

[2] = Determination of inhibitor concentration in mouse plasma after intraperitoneal and oral dosing; format: in vivo; conditions: for concentration at 7 h: vehicle PEG400:H2O pH 2.3 30:70, read-out: Cmin (7 hr conc.)
Summary of the method: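 Plasma levels quantified by HPLC or LC-MS using a standard curve prepared in mouse plasma, following ethyl acetate extraction with internal standard and sodium hydroxide. Sampling at 0.5, 1, 4 h (ocular bleed) and 7 h (cardiac puncture) after oral or intraperitoneal dosing.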

[3] = PO, 25 mg/kg, vehicle PEG400:H2O pH 2.3 30:70
[4] = IP, 25 mg/kg, vehicle PEG400:H2O pH 2.3 30:70
[5] = PO, 50 mg/kg, vehicle PEG400:H2O pH 2.3 30:70

plasma half-life (T1/2) [2, 3] | AUC(0-t) ([2]; female, PO, 25 mg/kg, vehicle PEG400:H2O pH 2.3 30:70) | Cmax ([2]; female, PO, 25 mg/kg, vehicle PEG400:H2O pH 2.3 30:70, read-out: Cmax) | concentration at 7 h ([2]; female, PO, 25 mg/kg) | AUClast [2, 3] | SMILES | % remain (HLM, 2 h) [1] | AUClast [2, 4] | Cmax [2, 4] | AUClast [2, 5] | Cmax [2, 5] | Cmax ([2]; female, PO, 25 mg/kg, vehicle 0.5% CMC, read-out: Cmax) | Cmax ([2]; female, PO, 100 mg/kg, vehicle 0.5% CMC, read-out: Cmax) | plasma half-life (T1/2) [2, 4] | plasma half-life (T1/2) [2, 5] | concentration at 7 h ([2]; female, IP, 25 mg/kg) | concentration at 7 h ([2]; female, PO, 50 mg/kg)
2.2 h | 7420 ng·h/mL | 3370 ng/mL | 86 ng/mL | – | O=C(NOCC1CC1)c1ccccc1Sc1ccc2c(/C=C/c3ccccn3)n[nH]c2c1 [Example 35(s), 6-[2-((Cyclopropyl)methoxycarbamoyl)phenylsulfanyl]-3-E-[2-(pyridin-2-yl)ethenyl]-1H-indazole] | 16% | – | – | – | – | – | – | – | – | – | –
2.1 h | – | – | 106 ng/mL | 4036 ng·h/mL | COc1cccc(CNC(=O)c2ccccc2Sc2ccc3c(/C=C/c4ccccn4)n[nH]c3c2)c1 [Example 35(aa)] | 15% | – | – | – | – | – | – | – | – | – | –
– | – | – | – | – | CNC(=O)c1ccccc1Sc1ccc2c(/C=C/c3ccccn3)n[nH]c2c1 [Example 33(a), 6-[2-(methylcarbamoyl)phenylsulfanyl]-3-E-[2-(pyridin-2-yl)ethenyl]indazole] | 29% | 13813 ng·h/mL | 13794 ng/mL | 19067 ng·h/mL | 23562 ng/mL | 721 ng/mL | 3560 ng/mL | – | – | – | –
– | – | – | – | – | Cn1cccc1C(=O)NNC(=O)c1ccccc1Sc1ccc2c(/C=C/c3ccccn3)n[nH]c2c1 [Example 35(e), 6-[2-((1-Methylpyrrol-2-ylhydrazido)carbonyl)phenylsulfanyl]-3-E-[2-(pyridin-2-yl)ethenyl]-1H-indazole] | 34% | 2409 ng·h/mL | – | 1503 ng·h/mL | – | – | – | 1.8 h | 0.9 h | 65 ng/mL | 6 ng/mL
– | – | – | – | – | COc1cccc(C(=O)Nc2cccc(C(=O)c3ccc4c(/C=C/c5ccccn5)n[nH]c4c3)c2)c1 [Example 41(bb), 6-[3-(3-Methoxybenzamido)benzoyl]-3-E-[2-(pyridin-2-yl)ethenyl]-1H-indazole] | 110% | – | – | 2178 ng·h/mL | 596 ng/mL | – | – | – | 2.0 h | – | 75 ng/mL
– | – | – | – | – | CCOCCNC(=O)c1ccccc1Sc1ccc2c(/C=C/c3ccccn3)n[nH]c2c1 [Example 35(z), 6-[2-(2-(Ethoxy)ethylcarbamoyl)phenylsulfanyl]-3-E-[2-(pyridin-2-yl)ethenyl]-1H-indazole] | 2% | 837 ng·h/mL | – | 1001 ng·h/mL | – | – | – | 1.8 h | 1.6 h | 22 ng/mL | 14 ng/mL
– | – | – | – | – | C#CCNC(=O)c1ccccc1Sc1ccc2c(/C=C/c3ccccn3)n[nH]c2c1 [Example 35(cc), 6-[2-(2-Propynylcarbamoyl)phenylsulfanyl]-3-E-[2-(pyridin-2-yl)ethenyl]-1H-indazole] | 31% | 2223 ng·h/mL | – | 1718 ng·h/mL | – | – | – | 1.4 h | 0.9 h | 6 ng/mL | 5 ng/mL
0.8 h | – | – | 1 ng/mL | 654 ng·h/mL | CC(C)=CC(=O)Nc1cccc(C(=O)c2ccc3c(/C=C/c4ccccn4)n[nH]c3c2)c1 [Example 41(dd), 6-[3(3,3-Dimethylacrylamido)benzoyl]-3-E-[2-(pyridin-2-yl)ethenyl]-1H-indazole] | 7% | – | – | – | – | – | – | – | – | – | –
